Activity calls are given as the source filed them. No rule for the calls is given here.
Tested on: CCRIS mutagenicity, Ames/micronucleus/aberration tests
Assay: CCRIS mutagenicity studies
[1] = Test System: AMES SALMONELLA TYPHIMURIUM, Strain/Indicator: TA98, Metabolic Activation: RAT, LIVER, S-9, AROCLOR 1254, Method: STANDARD PLATE
[2] = Test System: AMES SALMONELLA TYPHIMURIUM, Strain/Indicator: TA100, Metabolic Activation: NONE, Method: STANDARD PLATE
[3] = Test System: AMES SALMONELLA TYPHIMURIUM, Strain/Indicator: TA1538, Metabolic Activation: RAT, LIVER, S-9, PHENOBARBITAL, Method: STANDARD PLATE
[4] = Test System: AMES SALMONELLA TYPHIMURIUM, Strain/Indicator: TA98, Metabolic Activation: NONE, Method: STANDARD PLATE

With `COc1cc(-c2ccc(N)c(OC)c2)ccc1N` the mutagenic call (End Point: IN VITRO CHROMOSOMAL ABERRATIONS, Test System: CHL CELLS, Metabolic Activation: RAT, LIVER, S-9, SODIUM PHENOBARBITAL AND 5,6-BENZOFLAVONE) was “active; positive (structural changes); precipitation of test chemical observed above 0.6”, the mutagenic call (Test System: AMES SALMONELLA TYPHIMURIUM, Strain/Indicator: SV50, Metabolic Activation: NONE, Method: PREINCUBATION (PRIVAL METHOD)) was “inactive; negative” and the mutagenic call (Test System: AMES SALMONELLA TYPHIMURIUM, Strain/Indicator: SV50, Metabolic Activation: RAT, LIVER, S-9, AROCLOR 1254, Method: STANDARD PLATE) was “inactive; negative”. The mutagenic call (Test System: AMES SALMONELLA TYPHIMURIUM, Strain/Indicator: TA98(1,8-DNP6), Metabolic Activation: NONE, Method: STANDARD PLATE) was “inactive; negative”, the mutagenic call (Test System: AMES SALMONELLA TYPHIMURIUM, Strain/Indicator: TA98(1,8-DNP6), Metabolic Activation: S-9, Method: STANDARD PLATE) was “active; positive” and the mutagenic call (Test System: AMES SALMONELLA TYPHIMURIUM, Strain/Indicator: TA98, Metabolic Activation: HAMSTER, LIVER, S-9, AROCLOR 1254, Method: PREINCUBATION) was “active; positive”. For the same compound, the mutagenic call (Test System: AMES SALMONELLA TYPHIMURIUM, Strain/Indicator: TA98, Metabolic Activation: HAMSTER, LIVER, S-9, Method: PREINCUBATION (PRIVAL METHOD)) was “inactive; negative”, the mutagenic call (Test System: AMES SALMONELLA TYPHIMURIUM, Strain/Indicator: TA98, Metabolic Activation: RAT LIVER S-9, AROCLOR 1254, Method: PREINCUBATION) was “active; positive” and the mutagenic call (Test System: AMES SALMONELLA TYPHIMURIUM, Strain/Indicator: TA98, Metabolic Activation: RAT LIVER S-9, PHENOBARBITAL AND BETA-NAPHTHOFLAVONE, Method: PREINCUBATION) was “active; positive”. For the same compound, the mutagenic call (Test System: AMES SALMONELLA TYPHIMURIUM, Strain/Indicator: TA98, Metabolic Activation: RAT, LIVER, S-9, AROCLOR 1254, Method: PREINCUBATION) was “active; positive”, the mutagenic call [1] was “active; positive” and the mutagenic call (Test System: AMES SALMONELLA TYPHIMURIUM, Strain/Indicator: TA98, Metabolic Activation: RAT, LIVER, S-9, PCB, Method: PREINCUBATION) was “active; positive”. The mutagenic call (Test System: AMES SALMONELLA TYPHIMURIUM, Strain/Indicator: TA98, Metabolic Activation: S-9, Method: STANDARD PLATE) was “active; positive”, the mutagenic call (Test System: AMES SALMONELLA TYPHIMURIUM, Strain/Indicator: TA100, Metabolic Activation: HAMSTER, LIVER, S-9, AROCLOR 1254, Method: PREINCUBATION) was “inactive; negative” and the mutagenic call (Test System: AMES SALMONELLA TYPHIMURIUM, Strain/Indicator: TA100, Metabolic Activation: NONE, Method: PREINCUBATION) was “inactive; negative”. The mutagenic call [2] was “inactive; negative”, the mutagenic call (Test System: AMES SALMONELLA TYPHIMURIUM, Strain/Indicator: TA100, Metabolic Activation: RAT LIVER S-9, AROCLOR 1254, Method: PREINCUBATION) was “active; positive” and the mutagenic call (Test System: AMES SALMONELLA TYPHIMURIUM, Strain/Indicator: TA100, Metabolic Activation: RAT LIVER S-9, PHENOBARBITAL AND BETA-NAPHTHOFLAVONE, Method: PREINCUBATION) was “inactive; negative”. For the same compound, the mutagenic call (Test System: AMES SALMONELLA TYPHIMURIUM, Strain/Indicator: TA100, Metabolic Activation: RAT, LIVER, S-9, AROCLOR 1254, Method: PREINCUBATION) was “active; positive”, the mutagenic call (Test System: AMES SALMONELLA TYPHIMURIUM, Strain/Indicator: TA100, Metabolic Activation: RAT, LIVER, S-9, PCB, Method: PREINCUBATION) was “active; positive” and the mutagenic call (Test System: AMES SALMONELLA TYPHIMURIUM, Strain/Indicator: TA100, Metabolic Activation: S-9, Method: STANDARD PLATE) was “inactive; negative”. The mutagenic call (Test System: AMES SALMONELLA TYPHIMURIUM, Strain/Indicator: TA1535, Metabolic Activation: NONE, Method: PREINCUBATION) was “inactive; negative”, the mutagenic call (Test System: AMES SALMONELLA TYPHIMURIUM, Strain/Indicator: TA1535, Metabolic Activation: RAT, LIVER, S-9, AROCLOR 1254, Method: PREINCUBATION) was “inactive; negative” and the mutagenic call (Test System: AMES SALMONELLA TYPHIMURIUM, Strain/Indicator: TA1535, Metabolic Activation: RAT, LIVER, S-9, AROCLOR 1254, Method: STANDARD PLATE) was “active; positive”. The mutagenic call (Test System: AMES SALMONELLA TYPHIMURIUM, Strain/Indicator: TA1537, Metabolic Activation: HAMSTER, LIVER, S-9, AROCLOR 1254, Method: PREINCUBATION) was “inactive; negative”, the mutagenic call (Test System: AMES SALMONELLA TYPHIMURIUM, Strain/Indicator: TA1537, Metabolic Activation: NONE, Method: PREINCUBATION) was “inactive; negative” and the mutagenic call (Test System: AMES SALMONELLA TYPHIMURIUM, Strain/Indicator: TA1537, Metabolic Activation: RAT LIVER S-9, PHENOBARBITAL AND BETA-NAPHTHOFLAVONE, Method: PREINCUBATION) was “inactive; negative”. The mutagenic call (Test System: AMES SALMONELLA TYPHIMURIUM, Strain/Indicator: TA1537, Metabolic Activation: RAT, LIVER, S-9, AROCLOR 1254, Method: PREINCUBATION) was “inactive; negative”, the mutagenic call (Test System: AMES SALMONELLA TYPHIMURIUM, Strain/Indicator: TA1538, Metabolic Activation: HAMSTER, LIVER, S-9, Method: STANDARD PLATE) was “active; positive” and the mutagenic call (Test System: AMES SALMONELLA TYPHIMURIUM, Strain/Indicator: TA1538, Metabolic Activation: RAT, LIVER, S-9, AROCLOR 1254, Method: STANDARD PLATE) was “active; positive”. The mutagenic call [3] was “active; positive”, the mutagenic call (Test System: Ames Salmonella typhimurium, Strain/Indicator: TA98, Metabolic Activation: Rat, Liver, S-9, Sodium phenobarbitone, Method: Preincubation) was “active; positive, test conducted under both aerobic and anaerobic conditions” and the mutagenic call (Test System: Ames Salmonella typhimurium, Strain/Indicator: TA102, Metabolic Activation: None, Method: Preincubation) was “inactive; negative”. For the same compound, the mutagenic call (Test System: Ames Salmonella typhimurium, Strain/Indicator: TA102, Metabolic Activation: Rat, Liver, S-9, Aroclor 1254, 4%, Method: Preincubation) was “active; positive”, the mutagenic call (Test System: Ames Salmonella typhimurium, Strain/Indicator: TA1538, Metabolic Activation: Rat, Liver, S-9, Sodium phenobarbitone, Method: Preincubation) was “active; positive, test conducted under both aerobic and anaerobic conditions” and the mutagenic call (Test System: MOUSE LYMPHOMA, Strain/Indicator: L5178Y (TK+/TK-), Metabolic Activation: NONE, Method: SUSPENSION/PLATE) was “active; positive”. The mutagenic call (Test System: MOUSE LYMPHOMA, Strain/Indicator: L5178Y (TK+/TK-), Metabolic Activation: RAT, LIVER, S-9, AROCLOR 1254, Method: SUSPENSION/PLATE) was “active; positive” and the mutagenic call (Test System: UDS HUMAN CELLS, Strain/Indicator: THY INCORP (NON-S-PHASE), Metabolic Activation: RAT, LIVER, S-9, PHENOBARBITAL, Method: LIQUID SCINTILLATION COUNTING) was “active; positive”.
With `Nc1cc2[nH]c3ccccc3c2cc1[N+](=O)[O-]` the mutagenic call [4] was “inactive; negative”, the mutagenic call (Test System: AMES SALMONELLA TYPHIMURIUM, Strain/Indicator: TA98, Metabolic Activation: RAT, LIVER, S-9, PHENOBARBITAL, Method: STANDARD PLATE) was “active; positive” and the mutagenic call [2] was “inactive; negative”. The mutagenic call (Test System: AMES SALMONELLA TYPHIMURIUM, Strain/Indicator: TA100, Metabolic Activation: RAT, LIVER, S-9, PHENOBARBITAL, Method: STANDARD PLATE) was “active; positive”, the mutagenic call (Test System: AMES SALMONELLA TYPHIMURIUM, Strain/Indicator: TA1537, Metabolic Activation: NONE, Method: STANDARD PLATE) was “inactive; negative” and the mutagenic call (Test System: AMES SALMONELLA TYPHIMURIUM, Strain/Indicator: TA1537, Metabolic Activation: RAT, LIVER, S-9, PHENOBARBITAL, Method: STANDARD PLATE) was “active; positive”. The mutagenic call (Test System: AMES SALMONELLA TYPHIMURIUM, Strain/Indicator: TA1538, Metabolic Activation: NONE, Method: STANDARD PLATE) was “inactive; negative”, the mutagenic call [3] was “active; positive” and the mutagenic call (Test System: AMES SALMONELLA TYPHIMURIUM, Strain/Indicator: TA1977, Metabolic Activation: NONE, Method: STANDARD PLATE) was “inactive; negative”. For the same compound, the mutagenic call (Test System: AMES SALMONELLA TYPHIMURIUM, Strain/Indicator: TA1977, Metabolic Activation: RAT, LIVER, S-9, PHENOBARBITAL, Method: STANDARD PLATE) was “inactive; negative”.
With `CNP1(NC)=NP(NC)(NC)=NP(NC)(NC)=N1` the mutagenic call [4] was “inactive; negative”, the mutagenic call [1] was “inactive; negative” and the mutagenic call [2] was “inactive; negative”. The mutagenic call (Test System: AMES SALMONELLA TYPHIMURIUM, Strain/Indicator: TA100, Metabolic Activation: RAT, LIVER, S-9, AROCLOR 1254, Method: STANDARD PLATE) was “inactive; negative”.
